Measurements published in patent US12122811B2, “BDNF mimetic peptide amphiphiles” (Northwestern University, priority 2018, dated 2024).
Non-standard residues stand in square brackets, D forms with d. Primed or numbered codes have the meaning given here. No end group written: not given here. PEG6′ = PEG6 spacer

How the values were obtained:
[1] = target: T1, TrkB receptor (Mus musculus, UniProt P15209); test: TrkB receptor phosphorylation (p-TrkB) by western blot in primary cortical neurons; format: cell-based; settings: for TrkB phosphorylation: 4 and 6 h timepoints, 0.5 μM
T1 construct: Protein was extracted from primary neuronal cultures; endogenous in cells; host or cells: primary cortical neurons from E16 CD1 mouse embryos, 14 DIV
T1 sequence (P15209 32-821): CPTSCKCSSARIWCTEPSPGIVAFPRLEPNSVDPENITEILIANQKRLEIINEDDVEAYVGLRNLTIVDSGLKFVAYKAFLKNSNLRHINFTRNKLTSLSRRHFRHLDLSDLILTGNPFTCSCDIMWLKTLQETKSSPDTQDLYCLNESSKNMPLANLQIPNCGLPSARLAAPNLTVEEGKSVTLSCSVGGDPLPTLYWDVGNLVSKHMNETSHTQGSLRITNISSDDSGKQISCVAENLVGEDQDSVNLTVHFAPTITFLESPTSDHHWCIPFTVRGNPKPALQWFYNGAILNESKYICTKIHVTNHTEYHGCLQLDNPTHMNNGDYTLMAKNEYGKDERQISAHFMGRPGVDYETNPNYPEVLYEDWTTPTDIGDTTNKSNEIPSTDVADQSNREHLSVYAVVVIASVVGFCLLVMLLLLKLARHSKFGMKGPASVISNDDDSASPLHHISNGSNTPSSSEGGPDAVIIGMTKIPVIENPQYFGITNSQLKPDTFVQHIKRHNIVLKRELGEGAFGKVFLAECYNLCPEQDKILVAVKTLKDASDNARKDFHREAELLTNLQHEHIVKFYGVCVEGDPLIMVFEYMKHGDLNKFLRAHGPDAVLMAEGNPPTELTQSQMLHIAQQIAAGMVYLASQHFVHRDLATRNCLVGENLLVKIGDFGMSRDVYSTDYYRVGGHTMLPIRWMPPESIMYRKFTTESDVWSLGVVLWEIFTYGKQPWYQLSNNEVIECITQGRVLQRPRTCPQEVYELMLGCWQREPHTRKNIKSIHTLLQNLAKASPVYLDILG
Procedure: 2.3.2. Dissection of Embryonic Primary Cortical Neurons. Neurons were obtained from embryonic brains as described elsewhere.^2 Briefly, time-pregnant mouse was sacrificed by cervical dislocation and the embryos were extracted at embryonic day 16 (E16). Cerebral cortices were dissected from the mouse embryos and meninges were removed in a solution of Hank's Balanced Salt Solution (HBSS) with 1% pen-strep (Invitrogen) and then digested with trypsin (Invitrogen) and DNAse (Sigma-Aldrich) for 10 min at 37° C. The tissue was mechanically dissociated, centrifuged at 1000 g for 5 min, and resuspended in CO2-equilibrated Neurobasal (NB) neuronal culture medium (Invitrogen) supplemented with 10% normal horse serum (NHS) (Invitrogen), 1% pen-strep (Invitrogen), 0.5 mM L-glutamine (Invitrogen), and 5.8 μL NaHCO3/mL (Sigma-Aldrich). The cell suspension was pre-plated at 37° C. for 30 min. Afterwards, the supernatant was collected, passed through a cell strainer with 100 μm pore size and centrifuged at 1000 g for 5 min. The pellet was resuspended in NB neuronal culture medium (1% NHS, 1% pen-strep, 0.5 mM L-glutamine, 22 μM glutamic acid (Sigma-Aldrich), 2% B27 (Gibco), and 5.8 μL NaHCO3/mL (Sigma-Aldrich), and plated at different densities (depending on the type of experiment, see below) directly on tissue culture plates coated with poly-D-lysine (Sigma-Aldrich). After 24 hs, the medium was replaced with serum-free neuronal culture medium (1% pen-strep, 0.5 mM L-glutamine, 2% B27, 5.8 μL NaHCO3/mL). Under these conditions, we obtained a neuron-enriched culture with a composition of approximately 10% glial cells.
BDNF PA Treatments and Cell Culture Procedures. Treatments were prepared by dissolving PA (including E2 Filler, E2 Filler+E4PEG, E2 Filler+Linear BDNF, E2 Filler+BDNF PAs) and BDNF peptide at different concentrations (0.5, 1.0 or 5.0 μM), in media without serum or B27 supplement or starvation media. Unless otherwise noted, BDNF PA, Linear BDNF PA, or E4PEG PAs were co-assembled at 10 mol % with E2 filler PA (total concentration of PA was 5.0, 10.0, or 50.0 μM respectively). For the co-assembly ratio study, BDNF PA was co-assembled at 10, 20, 50, 70, 90, and 100 mol %. Human/Murine/Rat BDNF protein (Peprotech) was resuspended at different concentrations (0.25, 0.5 and 1 nM) in starvation media.
For western blot, cells were cultured in 6 well plates at a density of approximately 900,000 cells/well for 14 DIV before being treated. Treatments were added for 2, 4, 6, 8, 12 or 24 h in vitro before protein was harvested. […] Protein was extracted after six hours of treatment.
Western Blot. Protein was extracted from primary neuronal cultures with Halt Protease and Phosphatase Inhibitor Cocktail (Thermo Scientific) and a BCA assay (Thermo Scientific) was performed to determine protein content of each sample. Cell protein was loaded into and separated using a 4-20% SDS-PAGE gel (Bio-Rad). It was then electrotransferred from the gel to a nitrocellulose membrane (Bio-Rad). The membranes were blocked with 5% milk solution (Bio-Rad) for 30 minutes followed by an overnight incubation with primary antibodies at 4° C. The following primary antibodies were used: rabbit anti-pTrkB (1:1000, Cell Signaling), rabbit anti-TrkB (1:1000, Cell Signaling), rabbit anti-Actin (1:2000, Sigma Aldrich), mouse anti-Actin (1:2000, Sigma Aldrich), rabbit anti-pPLCγ (1:1000, Cell Signaling), rabbit anti-PLCγ (1:1000, Cell Signaling), rabbit anti-pAKT (1:2000, Cell Signaling), mouse anti-AKT (1:2000, Cell Signaling), rabbit anti-pERK1+ERK2 (1:1000, Abcam), rabbit anti-ERK 1/2 (1:1000, Cell Signaling), rabbit anti-PSD95 (1:1000, Abcam), rabbit anti-MAP-2 (1:2000, BioLegend), and mouse anti-Tuj-1 (1:1000, BioLegend). Membranes were then incubated with their corresponding secondary HRP-conjugated antibodies (1:1000; ThermoFisher). Protein signals were detected using Radiance Bioluminescent ECL substrate (Azure Biosystems). […]

[2] = system: cortical neurons; test: Infiltration and maturation of cortical neurons on 3D PA gel scaffolds; format: cell-based, mouse; settings: neurons on gels, one week
Procedure: Gels were made using annealed PAs prepared with methods described herein 1. BDNF native protein or BDNF peptide were incorporated by mixing at 10 nM or 0.5 uM respectively, with E2 Filler PA gel at 1 wt % while it was in its liquid state. Silicon isolators with adhesive (Invitrogen) were placed on PDL coated glass coverslips. 70 μL of PA liquid was pipetted into the circular silicon well and a Transwell insert was placed flush with the top of the well of the silicon insert. This step ensured a flat, even thickness for all gels. Gelling solution comprised of 125 mM NaCl, 3 mM KCl, and 25 mM CaCl2 was pipetted into the Transwell insert and allowed to slowly soak down into the material from the top. The insert prevented the gel from swelling more than the thickness of the silicon isolator. All gels were incubated at 37° C. for 5 min before removing the Transwell insert.
Infiltration Study. Gels were prepared as described in 2.1.2. Gels were then rinsed with media one time before cells were seeded on top at a density of approximately 42,000 cells/well. Cells were cultured for one week in vitro. Half of the gels were analyzed by patch clamp analysis (see section 3.4.9. Other gels were fixed with 4% PFA to perform infiltration studies. Cell were stained for MAP2, TUJ-1 and DAPI using immunocytochemistry methods described previously. Confocal microscopy was used to make z-stack reconstructions of each gel. The MultiMeasure function in the ROI manager of ImageJ was used to measure the depth of pixels for each channel which was then plotted as intensity vs depth in the gel. The average intensity of MAP2 was measured by averaging the mean intensities obtained from maximum intensity projections of z-stacks images of gels.

[3] = system: mouse model of spinal cord injury; test: Mouse model of spinal cord injury, Basso Mouse Scale hind limb scoring; format: in vivo; settings: 12 weeks after injury; BDNF PA co-assembled at 20 mol % with E2 PA gel, injected 24 h after injury
Description: The spinal cord injury procedures used follow a standardized protocol to ensure a reproducible injury. Mice were anesthetized and their back is opened to reveal the vertebral column. The vertebral bone at T11 was surgically removed to reveal the spinal cord tissue. The mice were then transferred the impactor machine which is used to inflict a compression injury on the exposed spinal cord. The spinal cord was held in place using stereotactic clamps. The instrument inflicts a force of 70-80 kDynes and dwells in the place of the impact for 60 seconds to simulate a crush injury accident. This injury is quite severe. After each impact was performed, the instrument supplies a graph corresponding to the real force and trajectory of the impactor. This graph is used to compare and ensure that all animals receive an injury of the same nature. After the injury is inflicted, the animals were closed and allowed to rest for 24 hours.
The next day, the animals were re-opened and prepared for the “treatment” surgery. Before beginning the procedure, all animals underwent a behavioral assessment and mice with hind limb movement were discarded from the study. When the animal is re-opened, there was typically a dark, bruised area apparent where the crush injury took place the previous day. This is where the treatment was injected. A Hamilton syringe attached to a glass-pulled needle with a diameter of ˜300 μm was used to puncture the bruised dermis of the tissue and the treatment was injected into the underlying tissue cavity. Treatment types include; saline, and the C16V2A2E2 (E2) non-bioactive PA gel as negative controls, as well as the BDNF PA co-assembled at 20 mol % with the E2 non-bioactive PA gel.
After injection, the animals were closed and returned to cages to recover. Over the next 12 weeks, blinded hind limb behavioral scoring was performed to assess any functional changes (FIG. 21). A standardized “Basso Mouse Scale” was used (Basso et al. J Neurotrauma. 2006 May; 23(5):635-59.; herein incorporated by reference in its entirety). Two blinded researchers were either side of a runway where the mouse was guided to move in a straight line. As the mouse walks, each researcher grades the limb movement. Any discrepancies in evaluation were re-evaluated by a third researcher. The score for the two limbs was averaged and marked as the score for that animal.

| Molecule | TrkB phosphorylation after pre-treatment with inhibitor K252a ([1]; K252a 2 h prior to treatment, 6 h post-treatment) | TrkB phosphorylation [1] | distance that neurites infiltrated from the top of the scaffold [2] | normalized average of MAP2 intensity [2] | final average limb behavioral score (Basso Mouse Scale) [3] |
| --- | --- | --- | --- | --- | --- |
| COC(=O)[C@@]1(O)C[C@H]2O[C@]1(C)n1c3ccccc3c3c4c(c5c6ccccc6n2c5c31)C(=O)NC4 [K252a, reference compound] | completely blocked |  |  |  |  |
| C16V2A2E2 (EEAAVV) [E2 Filler PA] |  | none of these control conditions were able to induce TrkB phosphorylation | 36.9±9.9 μm | 0.32±0.06 | 2.4 |
| Linear BDNF PA: non-cyclized BDNF PA synthesized as a control (chain 1 RKK[aK][dP][PEG6′]EEEEAAVV; chain 2 EEAAVV; not fully specified (C-terminus)) |  | lack of TrkB phosphorylation |  |  |  |
